# Activity calls are given as the source filed them.
# What was measured:
# cells [1] = format: functional, cell-based
# cells [2] = format: functional, cell-based; remark: listed apart in the source
# [3] = target: T1, High affinity choline transporter 1 (Homo sapiens, UniProt Q9GZV3); assay: CHT inhibitors, dose response, cell-based, 5-point CRC, membrane potential dye (AID 504840); format: functional
# T1 sequence (Q9GZV3 whole entry): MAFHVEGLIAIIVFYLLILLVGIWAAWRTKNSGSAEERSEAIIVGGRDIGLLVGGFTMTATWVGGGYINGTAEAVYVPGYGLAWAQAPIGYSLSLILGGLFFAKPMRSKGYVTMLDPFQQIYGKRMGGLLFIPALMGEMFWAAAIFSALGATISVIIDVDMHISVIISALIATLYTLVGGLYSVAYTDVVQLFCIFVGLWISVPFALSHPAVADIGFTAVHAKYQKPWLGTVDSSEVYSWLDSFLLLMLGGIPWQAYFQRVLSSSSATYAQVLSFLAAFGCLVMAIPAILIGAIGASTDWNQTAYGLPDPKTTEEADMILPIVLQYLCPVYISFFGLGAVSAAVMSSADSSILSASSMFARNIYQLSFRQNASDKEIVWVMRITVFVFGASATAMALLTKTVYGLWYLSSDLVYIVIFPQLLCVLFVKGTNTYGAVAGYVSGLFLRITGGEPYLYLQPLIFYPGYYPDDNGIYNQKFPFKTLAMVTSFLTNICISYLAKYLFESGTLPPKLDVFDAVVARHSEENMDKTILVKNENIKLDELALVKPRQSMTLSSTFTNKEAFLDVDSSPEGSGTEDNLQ
# [4] = Luminescence Cell-Based Dose Response HTS to Identify Activators of Luciferase Translation or Activity in H4 […] Cells. [Related pubchem assays: 1829 (Project Summary), 1814 (Primary HTS)]; format: functional
# H4 = assay: Luminescence Cell-Based Dose Response HTS to Identify Activators of 5'UTR Stem-Loop Driven Prion Protein mRNA Translation in H4 Neuroglioblastoma Cells. [Related pubchem assays: 1829 (Project Summary), 1814 (Primary HTS)]; format: functional; conditions: Homo sapiens
# [5] = target: Heat shock protein HSP 90-alpha (Homo sapiens, UniProt P07900); format: functional, organism-based
# [6] = cytotoxicity in HEK-293T cells, dose response, cytotoxicity control for TCR NF-kB inhibitor project, luminescence, T-cell screen hits (AID 489026); format: functional, cell-based;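 further: cells exposed to compound about 14 hours before the viability readout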
# P388/ADR = assay: cells; format: functional; conditions: Mus musculus
# SN12K1 = assay: cells; format: functional; conditions: Homo sapiens
# P388 = assay: cells; format: functional; conditions: Mus musculus
# [7] = A549 cell cytotoxicity, dose response, cytotoxicity control, plate reader, cherry-pick, antagonist series (AID 743412); format: functional, cell-based
# [8] = MC4R antagonists, dose response, counter-screen for LGR2 antagonist project, cell-based, plate reader, cherry pick (AID 743444); format: functional;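 further: transfected HEK 293 cells stimulated with alpha-MSH peptide; potency of inhibitors of the alpha-MSH evoked signal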
# [9] = LGR2 antagonists, dose response, cell-based, HEK293, CRE-luciferase reporter, cherry pick, set 2 (AID 743343); format: functional;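 further: transfected cells were stimulated with diluted bursicon conditioned medium after compound addition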
# cells [10] = format: functional
# [11] = Vero E6 cell cytotoxicity, dose response, cytotoxicity control for non-replicating M. tuberculosis project, secondary assay (AID 492998); format: functional, VeroE6; conditions: Vero C1008
# Large T antigen = Large T antigen (Simian virus 40, UniProt P03070); format: functional, Betapolyomavirus macacae;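 further: Confirmatory-stage PubChem screen for compounds that inhibit SV40 T antigen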
# Large T antigen, sequence (P03070 whole entry): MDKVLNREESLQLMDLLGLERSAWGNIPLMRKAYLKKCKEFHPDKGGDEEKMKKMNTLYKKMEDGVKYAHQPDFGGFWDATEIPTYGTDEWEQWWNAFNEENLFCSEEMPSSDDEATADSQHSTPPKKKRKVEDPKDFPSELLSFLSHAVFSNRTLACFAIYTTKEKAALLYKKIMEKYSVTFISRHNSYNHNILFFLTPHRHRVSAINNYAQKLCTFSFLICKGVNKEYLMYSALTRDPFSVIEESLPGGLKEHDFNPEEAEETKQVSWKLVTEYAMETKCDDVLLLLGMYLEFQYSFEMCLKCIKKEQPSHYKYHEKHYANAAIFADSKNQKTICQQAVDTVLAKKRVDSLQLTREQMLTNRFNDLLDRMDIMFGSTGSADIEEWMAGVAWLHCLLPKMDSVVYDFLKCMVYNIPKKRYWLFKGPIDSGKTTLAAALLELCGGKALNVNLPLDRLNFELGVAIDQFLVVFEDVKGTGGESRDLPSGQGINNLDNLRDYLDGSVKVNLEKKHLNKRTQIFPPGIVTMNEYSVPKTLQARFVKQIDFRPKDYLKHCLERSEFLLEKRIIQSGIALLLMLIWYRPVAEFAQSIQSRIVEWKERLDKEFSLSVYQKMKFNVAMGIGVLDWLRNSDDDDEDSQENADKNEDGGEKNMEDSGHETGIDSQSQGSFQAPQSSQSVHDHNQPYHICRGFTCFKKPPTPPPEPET
smiles,measurement,setting,value
Cn1cc(CN2CCC(C(=O)Nc3cccc(-c4cscn4)c3)CC2)cn1,EC50,cells [1],> 350 µM (not active)
same,EC50,cells [2],> 350 µM (not active)
NC(=O)CSc1nnc2ccc(-c3ccc(Cl)cc3)nn12,EC50,cells [1],> 350 µM (not active)
same,EC50,cells [2],> 350 µM (not active)
CCOc1ccccc1CN1CCN(S(C)(=O)=O)CC1,EC50,cells [1],> 350 µM (not active)
same,EC50,cells [2],> 350 µM (not active)
O=C(NC1CCCCC1)C(c1ccc2ncccc2c1)N(Cc1ccc2c(c1)OCO2)C(=O)c1ccc2c(c1)OCCO2 (stereo not given),IC50,[3],15.1 µM (active)
CCN1CCN(Cc2ccccc2NC(=O)Nc2ccc(C)cc2)CC1,EC50,[4],> 120 µM (not active)
same,EC50,H4,7.09 µM (active)
O=C(Nc1ccccc1)Oc1cccc2cccnc12,AC50,[5],3.44 µM (active)
N=C(Cc1ccc(Cl)cc1Cl)NOC(=O)c1ccc(Br)o1,AC50,[5],3.11 µM (active)
CCCCCN1C=CC(=C2C(=O)c3ccccc3C2=O)C=C1,IC50,[6],> 80 µM (inactive)
COc1cc([C@@H]2c3cc4c(cc3[C@@H](OC3OC5COC(C)OC5C(O)C3O)[C@H]3COC(=O)[C@H]23)OCO4)cc(OC)c1O (stereo not given in full),GI50,P388/ADR,58.6 µM (inactive)
same,GI50,SN12K1,1.17 µM (inactive)
same,GI50,P388,0.275 µM (active)
CN(C)S(=O)(=O)c1cccc(NC(=O)COc2ccccc2C(=O)Nc2ccccc2)c1,AC50,[7],30.6 µM (active)
same,AC50,[8],22.9 µM (active)
same,AC50,[9],20.1 µM (active)
CN(CCO)/N=N/c1n[nH]cc1C(N)=O,GI50,P388/ADR,> 100 µM (inactive)
same,GI50,SN12K1,> 100 µM (inactive)
same,GI50,P388,> 100 µM (inactive)
O=[N+]([O-])c1cccc2c1[nH]c1c(-c3ccccc3)nccc12,GI50,P388/ADR,2.52 µM (inactive)
same,GI50,SN12K1,1.72 µM (inactive)
same,GI50,P388,2.52 µM (inactive)
CN(C)CCNC(=O)c1cccc2[nH]c(-c3ccccn3)nc12,GI50,P388/ADR,21.3 µM (inactive)
same,GI50,SN12K1,25.2 µM (inactive)
same,GI50,P388,14.5 µM (inactive)
OCC#CCNCl,GI50,P388/ADR,> 46 µM (inactive)
same,GI50,SN12K1,> 100 µM (inactive)
same,GI50,P388,16.1 µM (inactive)
O=C(/C=C/c1ccccc1Cl)c1ccc(O)cc1,AC50,[5],4.46 µM (active)
COC(=O)N/N=C/c1ccc([N+](=O)[O-])s1,IC50,cells [10],30.5 µM (active)
same,CC50,[11],> 20 µM (active)
COc1cc(/C=N/NC(=O)CCn2nc(C)cc2C)ccc1O,IC50,Large T antigen,15.6 µM (active)
O=C(N/N=C/c1c[nH]c2ccccc12)c1ccc(O)c(O)c1,IC50,Large T antigen,9.13 µM (active)
